According to patent publication US7858578B2, “Methods of inducing neuronal growth by a Fucose-α(1-2) galactose (fuc-α(1-2) gal) moiety and a lectin” (California Institute of Technology, priority 2004, dated 2010):

Experiments:
[1] = tested on: hippocampal neurons; assay: Binding of biotinylated probe to cultured hippocampal neurons (streptavidin-AlexaFluor 488 imaging); type: cell-based, rat; conditions: 3 mM, 10 μM PAO; for labeling of neurons after de-lipidation: neurons de-lipidated with MeOH/CHCl3; for binding to hippocampal neurons: 1 h, E18 neurons 23 days in vitro
Description: Hippocampal neurons were cultured using a procedure modified from Goslin and Banker, in Culturing Nerve Cells, Banker, G., Goslin, K., Eds., pp. 251-281, MIT Press: Cambridge, Mass. 1991. Briefly, the hippocampi of embryonic day 18 (E18) rats were dissected and transferred to 4.5 mL of ice-cold Calcium and Magnesium Free-Hank's Balanced Salt Solution (CMF-HBSS). Trypsin (2.5%, no EDTA) was added to 5 mL, and the tissue was incubated for 15 min at 37° C. The trypsin solution was removed and the tissue sample washed three times with 5 mL of CMF-HBSS. Cells were then dissociated from the tissue in 1 mL of CMF-HBSS by passing through a P1000 pipet tip twenty times. The cells were counted, diluted into Minimal Eagle's Medium (MEM) plus 10% fetal bovine serum, and seeded on poly-DL-ornithine-coated glass coverslips (Carolina Biological) at a density of 75 cells/mm2 (100 μL/coverslip) for 30 min. After this time, 500 μL of supplemented Neurobasal medium (47.5 mL Neurobasal medium without Lglutamine; 0.5 mL L-glutamine (200 mM); 0.5 mL penicillin/streptomycin (10,000 U/mL); 0.5 mL antibiotic-antimycotic (100× stock), 1.0 mL B-27 serum-free supplement (50× stock); 50 μL of 0.5 M kynurenic acid in 1 N NaOH) was added to each coverslip. The use of kynurenic acid to block glutamate receptor ion channels and enhance neuronal health and survival is standard protocol for neuronal cultures. Id. The cultures were maintained in 5% CO2 at 37° C. in supplemental Neurobasal medium.
After 23 days in culture, the medium was replaced, and neurons were treated with the endocytosis inhibitor phenylarsine oxide (PAO; 4 μL in DMSO, final concentration 10 μM) (Nouel, D., et al., J. Neurosci. 17:1795-1803 (1997)) and either compound III (24 μL in PBS, final concentration 3 mM), or biotin (24 μL in PBS, final concentration 3 mM), in supplemented Neurobasal medium (400 μL final volume) for 1 h at 37° C., 5% CO2. After 1 h, neurons were rinsed 2 times with PBS, fixed in 4% paraformaldehyde for 20 min at rt, washed 2 times with PBS, permeabilized in 0.3% Triton X-100 for 5 min at rt, and washed 2 times with PBS. Non-specific binding was blocked with 3% BSA for 1 h at rt and then rinsed one time with PBS. Compound III was detected with streptavidin conjugated to AlexaFluor 488 (1:200, Molecular Probes). Dye-conjugated streptavidin was added in 3% BSA for 1 h at 37° C. and the excess reagent washed off 5 times with PBS. Coverslips were then mounted onto slides with Vectashield, sealed, and imaged using confocal laser microscopy. Results can be seen in FIG. 2.
De-lipidation was performed on some samples following the protocol of Yavin, E. et al., J. Neurosci. Res. 9:229-237 (1983). Briefly, after 23 days in culture, cells were rinsed once with PBS then exposed to MeOH/CHCl3 (½ by vol.) for 15 min at −80° C. This procedure fixes the cells to the coverslip and extracts cellular lipids. After removing the MeOH/CHCl3 mixture, coverslips were dried at rt then incubated with 3% BSA for 1 hr at rt. After one rinse with PBS, neurons were treated with PAO and the procedure described above was followed.

[2] = tested on: hippocampal neurons; assay: Neurite outgrowth of hippocampal neurons treated with carbohydrate-PAA conjugates; type: cell-based, rat; conditions: FIG. 4B, concentration and valency series
Description: Hippocampal neurons were cultured using a procedure modified from Goslin and Banker, in Culturing Nerve Cells, Banker, G., Goslin, K., Eds., pp. 251-281, MIT Press: Cambridge, Mass. 1991. Briefly, the hippocampi of embryonic day 18 (E18) rats were dissected and transferred to 4.5 mL of ice-cold Calcium and Magnesium Free-Hank's Balanced Salt Solution (CMF-HBSS). Trypsin (2.5%, no EDTA) was added to 5 mL, and the tissue was incubated for 15 min at 37° C. The trypsin solution was removed and the tissue sample washed three times with 5 mL of CMF-HBSS. Cells were then dissociated from the tissue in 1 mL of CMF-HBSS by passing through a P1000 pipet tip twenty times. The cells were counted, diluted into Minimal Eagle's Medium (MEM) plus 10% fetal bovine serum, and seeded on poly-DL-ornithine-coated glass coverslips (Carolina Biological) at a density of 75 cells/mm2 (100 μL/coverslip) for 30 min. […]
The association of Fucα(1-2)Gal with potential lectins was studied to determine if it would stimulate neuronal growth. […] The cultures were incubated in 5% CO2 at 37° C. and analyzed. […]
For each experiment, 50 randomly selected cells were analyzed per coverslip using similar quantitative analysis techniques reported by Schmid et al., J. Neurosci. […] Briefly, only neurites longer than ˜10 μm and not in contact with other cells were measured using NIH Image 1.62 software. […]

Structure (SMILES): C[C@@H]1O[C@@H](O[C@H]2[C@H](OCCOCCNC(=O)CCCC[C@@H]3SC[C@@H]4NC(=O)N[C@@H]43)O[C@H](CO)[C@H](O)[C@@H]2O)[C@@H](O)[C@H](O)[C@@H]1O [Compound III]
- labeling of neurons after de-lipidation [1]: labeling was not diminished
- labeling of neurons after de-lipidation ([1]; listed as probe III): does not alter the labeling
- binding to hippocampal neurons [1]: binds
- binding to hippocampal neurons ([1]; listed as compound III): binding of compound III to the cell body and neurite processes
- neurite outgrowth activity [2]: only modest activity
